Laboratory results taken from publication PMC8954523 (Pharmaceutics, 2022).
Converted amounts (≈) assume the structure as drawn. Like-named read-outs stand apart in the source and are kept apart here.

How the values were obtained:
[1] = Apparent distribution coefficient, 1-octanol/water, isothermal shake-flask; type: physicochemical; details: 298.15 K
Method: The well-known isothermal shake-flask method was applied for the determination of the apparent distribution coefficients in the 1-octanol/water ( Dappoct/w ) and n-hexane/water ( Dapphex/w ) systems. The mutually saturated solvents were prepared by mixing water and organic phases for 24 h and settling and separating from each other. The stock solutions of the drug were made from 1-octanol saturated with water for the 1-octanol/water distribution, and n-hexane saturated with water for the n-hexane/water system. An aliquot of the stock solution was placed in a glass vial together with an aliquot of the respective phase and mixed for 24 h at five temperatures, from 293.15 to 313.15 K (±0.1 K). The concentrations of the compounds were determined spectrophotometrically (Shimadzu 1800, Kyoto, Japan) in a UV region, with an accuracy of 2–4%. The reported experimental values represent the average of at least four replicate experiments.
The apparent distribution coefficients were calculated from the molar concentrations of the substance in the phases using the following equation:(10) DCorg/w=C2org/w/C2w/org where DCorg/w is the apparent distribution coefficient, C2org/w and C2w/org are the concentrations (M) of the compound after the distribution in the 1-octanol or n-hexane and water phases, respectively. The apparent distribution coefficients in the mole fraction scale ( DXorg/w ) were calculated by the equation:(11) DXorg/w=X2org/w/X2w/org where X2org/w and X2w/org are the concentrations (mole fract.) of the compound after distribution. The standard Gibbs energy of the transfer ( ΔGtr0) from water to the organic phase was calculated as follows:(12) ΔGtr0=−RT(lnDXorg/w)

[2] = cited from earlier work

Question: What does the source list for CC(O)(CS(=O)(=O)c1ccc(F)cc1)C(=O)Nc1ccc(C#N)c(C(F)(F)F)c1 (stereo not drawn) [BCL, bicalutamide]?
Answer: experimental over calculated distribution coefficient ([1]; 1-octanol/water): 3.3 fold; logP at 24 h ([1]; 1-octanol/water, read-out: logDCoct/w, experimental): 2.82 ± 0.09; DCoct/w, experimental apparent distribution coefficient ([1]; 1-octanol/water, molarity scale): 662.29 ± 20.22; ∆logDcalc ([1]; from calculated distribution coefficients): 2.30; ∆logD ([1]; logDCoct/w − logDChex/w, experimental): 2.55; DC/calcoct/w, calculated distribution coefficient ([1]; ratio of molar solubilities in 1-octanol and water): 199.02 ± 12.00; solubility ([2]; aqueous): less than 5 mg∙L^−1; aqueous solubility ([2]; ref 10): approximately 3.7 μg·mL^−1; aqueous solubility ([2]; ref 11): 8.85 µg/mL (≈ 20.6 µM)
